This data set in a line: Solubility by HPLC in approximately 0.1N HCl medium. Format: physicochemical. The settings on record: simulated gastric fluid, thermodynamic from solid, HPLC technique. On the procedure:
By way of indication, the solubility S0 of the cimicoxib powder alone and the solubility S2 of the particle agglomerate according to this second example of the invention were measured by the HPLC (high performance liquid chromatography) technique and in an approximately 0.1N HCl medium, with the following results (solubilities in milligrams/liter):
By way of indication, the solubility S5 of this particle agglomerate according to this fifth example of the invention was compared to the solubility S0 of the cimicoxib powder alone by the HPLC technique and in an approximately 0.1N HCl medium, with the following results (milligrams/liter): […]

For one molecule, solubility results are on record in US20080213376A1, “Medicament that is Intended for Oral Administration, Comprising a Cyclooxygenase-2 Inhibitor, and Preparation Method Thereof” (VETOQUINOL, priority 2005, published 2008).

The solubility is how much of the substance goes into solution per volume.

≈ marks a conversion by molar mass, not a printed value.

Molecule `COc1ccc(-c2c(Cl)ncn2-c2ccc(S(N)(=O)=O)cc2)cc1F` [cimicoxib powder alone, cimicoxib] displayed a solubility of 3.1 µg/mL (≈ 8.12 µM).
